In patent EP2433619A1, “Novel antitumoral agent and its therapeutic uses” (Intsel Chimos, priority 2010, dated 2012):
Where “and” joins values, the source holds several entries; their conditions need not be identical. Equal values may be shown once. Entries after “also recorded” stand apart in the source; their conditions may differ.

Columns and labels:
[1] = test system: rat brain C6 glioblastoma cells; test: intratumoral injection of liposomes in rats with intracerebral implantation of C6 glial cells (earlier studies); type: in vivo; conditions: compared with animals treated with liposomes only
From the text: The effect of 7-β-hydroxy cholesteryl-3-β-oleate-ester on rat brain C6 glioblastoma cells was studied (Werthle M & All).
The ester of 7-β-hydroxy-cholesterol, the 7-β-hydroxy cholesteryl-3-β-oleate-ester (7-β-OHCOE) belongs to the oxysterols.

glioma C6 Cells = test: single stereotactic cerebral intra-ventricular injection in rats implanted with glioma C6 cells; type: in vivo
[2] = test system: Advanced glioblastoma, Grade III o IV astrocytoma, Anaplastic oligodendroglioma; test: compassionate clinical trial, stereotactic administration of liposomal form; type: in vivo, patients; conditions: 1 to 3 doses, total 0.05 to 3.2mg/patient
[3] = stability of Oxysterol solution to autoclave sterilisation; type: physicochemical
Procedure: A solution of 5 mg Oxysterol in 5 ml of a mixture Acetonitrile / isopropanol (44/56 v/v) is prepared then sterilized in the autoclave for 20 min at 121°C. The solution is analysed according to a […] method of oxysterol before and after autoclaving. The solution of oxysterol is subjected to a second autoclaving for 30minutes at 121°C. The areas of the peaks of oxysterol are determined and the yield after autoclaving is calculated in the following manner Yield: Area of oxysterol after autoclaving; Area of oxysterol before autoclaving x 100 [formula]

[4] = set-up: species or system rats and mice; conditions: in vivo
[5] = stability of active principle in the finished product to autoclaving; type: physicochemical; conditions: for Content in oxysterol: samples PE1-PE3, listed as oxysterol
Procedure: A batch has been subjected to a dosage before and after autoclaving 20 minutes at 121 °C, to determine whether oxysterol also resists to autoclaving. Three samples have been analysed :
The autoclaving yield is calculated in the following manner Yield autoclaving: Content oxysterol after autoclaving; Content oxysterol before autoclaving x 100 [formula]

[6] = test system: rat brain C6 glioblastoma cells; conditions: injection of liposomes containing the ester vs liposomes without oxysterol (Werthle M & All); cited from earlier work
tumour astrocyte lines = conditions: lines from primary cultures of astrocytes of newborn rat brain; cited from earlier work
[7] = 2 autoclavings, second for 30 minutes at 121°C
[8] = after autoclaving 20 minutes at 121 °C

With CCCCCCCC/C=C\CCCCCCCC(=O)O[C@H]1CC[C@@]2(C)C(=C[C@H](O)[C@H]3[C@@H]4CC[C@H]([C@H](C)CCCC(C)C)[C@@]4(C)CC[C@@H]32)C1 [7-β-OHCOE, 7-β-hydroxy cholesteryl-3-β-oleate-ester] the tumor growth [1] was “significant regression of tumor growth; also recorded: spectacular regression of tumour growth”, the survival (glioma C6 Cells; injection of liposomal form in experimental animals) was “did affect neither survival nor body weight” and the “total tumoral volume, mean value” (glioma C6 Cells; liposomal, injected 3 days after implantation, sacrificed 10 days after treatment, reduced from 4.4mm3) was 0.8 mm3. The body weight (glioma C6 Cells; rat, in vivo) was “did affect neither survival nor body weight”, the “partial or total remission observed” value ([2]; 11 patients included) was 3 patients and the side effects ([2]; 11 patients) was “No significant side effects were observed”. The “Area oxysterol after autoclaving” value ([3]; 1 autoclaving, 20 min at 121°C) was 5517,4, the Yield of autoclaving ([3]; 1 autoclaving, 20 min at 121°C) was 100,2% and the “Area oxysterol before autoclaving” value ([3]; 1 autoclaving, 5 mg in 5 ml Acetonitrile / isopropanol (44/56 v/v)) was 5506,5. For the same molecule, the “Area oxysterol before autoclaving” value ([3]; 2 autoclavings) was 5666,1, the “Area oxysterol after autoclaving” value [3, 7] was 5716,3 and the Yield of autoclaving [3, 7] was 100,9%. The metabolism [4] was “metabolized to cholesterol within the cerebral parenchyma”, the noxious effects [4] was “no noxious effects” and the “Content in oxysterol, Average” value [5, 8] was 1,43 mg/g. For the same molecule, the Content in oxysterol [5, 8] was 1,42 mg/g and 1,41 mg/g and 1,45 mg/g, the “average yield of autoclaving” value ([5]; autoclaving 20 minutes at 121 °C) was 97,9% and the “Content in oxysterol, Average” value ([5]; before autoclaving) was 1,46 mg/g. The Content in oxysterol ([5]; before autoclaving) was 1,45 mg/g and 1,46 mg/g and the tumor volume [6] was “marked decrease in tumor volume”.

In the case of CC(C)CCC[C@@H](C)[C@H]1CC[C@H]2[C@@H]3[C@@H](O)C=C4C[C@@H](O)CC[C@]4(C)[C@H]3CC[C@]12C [7-β-OH-CH, 7 beta-hydroxy-cholesterol], the “lethal effect / cytotoxicity” value (tumour astrocyte lines) is given as “lethal effect”.
